Laboratory results published in patent US20090062369A1, “USE OF SECRETORY PHOSPHOLIPASE A2 (SPLA2) INHIBITORS TO DECREASE SPLA2 LEVELS” (priority 2007, published 2009).

Test system: serum sPLA2
Test: Effect of twice-a-day oral A-002 on serum sPLA2 levels in subjects with stable coronary artery disease (Example 6)
Assay type: in vivo, human
Description: The protocol for preparing standard curve, test, and quality control samples for use in the assay disclosed herein is set forth in Example 5. Samples are prepared according to this protocol, then loaded in duplicate onto a plate (Cayman catalog no. 485002 or equivalent) that has been pre-coated with a monoclonal sPLA2 antibody (“capture antibody”) that specifically binds sPLA2. In certain embodiments, the capture antibody may interact with a specific form of sPLA2, such as for example sPLA2 type IIA.
sPLA2 acetylcholinesterase:Fab′ conjugate (AChE:Fab′) (“conjugate”) (Cayman catalog no. 485000 or equivalent) is reconstituted in EIA buffer (Cayman catalog no. 400060 or equivalent). Cayman EIA buffer is 1M phosphate, pH 7.0, 1% BSA, 4M NaCl, 10 mM EDTA, and 0.1% sodium azide. Reconstituted conjugate is added to each well of the plate. The conjugate binds a different sPLA2 epitope than the capture antibody, allowing the capture antibody and the conjugate to form a “sandwich” that is immobilized on the plate. Excess reagents are washed away, and the plate is covered and incubated overnight at 2-8° C.
Prior to development, the wells are washed five to six times with wash buffer (Cayman catalog no. 400062 or equivalent). To develop the plate, Ellman's Reagent (Cayman catalog no. 400050 or equivalent) is reconstituted in water and added to each well according to manufacturer instructions. The reconstituted Ellman's Reagent must be used the same day it is prepared because it is unstable. Ellman's Reagent contains an AChE substrate. Specifically, Ellman's Reagent contains acetylthiocholine and 5,5′-dithio-bis-(2-nitrobenzoic acid). Hydrolysis of acetylthiocholine by acetylcholinesterase produces thiocholine, which reacts with 5,5′-dithio-bis-(2-nitrobenzoic acid) to produce 5-thio-2-nitrobenzoic acid. 5-thio-2-nitrobenzoic acid has a strong absorbance at 412 nm. The intensity of absorbance at this wavelength is directly proportional to the concentration of bound conjugate, which is in turn is directly proportional to the concentration of sPLA2 present (Absorbance a [AChE:Fab′ conjugate] α [sPLA2]). During the development step, the plate is shaken, preferably in the dark. In certain embodiments the development time for the assay is 0.5 to 3 hours, preferably 1 to 1.5 hours. At the end of the development period, the high sPLA2 standards should have greater yellow color development than the zero standards. Absorbance of each well is measured at 400-420 nm using a micro-well plate reader. In certain embodiments, absorbance is measured at about 405 nm.
Absorbance readings for duplicate wells are averaged, and the relative standard deviation and % CV are calculated. Standard curve data are used to generate a four parameter curve, and quality control and test samples are measured against the appropriate standard curve (i.e., the standard curve with the same serum content). In order for a test to be considered valid, variation between duplicate wells should be no more than about 25%, and negative controls (blanks) for each standard curve should have a mean absorbance of less than about 0.3.
The method disclosed herein for measuring sPLA2 levels in serum was utilized to determine the effect of administering certain sPLA2 inhibitors on sPLA2 levels in 84 human subjects. The subjects included 24 subjects with diabetes, 32 subjects with metabolic syndrome, and 75 subjects receiving statin treatment. Subjects were administered the sPLA2 inhibitor A-002, a prodrug form of A-001, twice a day at varying dosages from 50 to 500 mg. The structures of A-002and A-001 are set forth below. At two weeks and four weeks after the first administration, sPLA2 levels were measured and compared to pre-administration baseline levels.
84 subjects with stable coronary artery disease were randomized to receive placebo or A-002 via oral administration twice a day over a four week administration period. […]

[1] = 500 mg, non-diabetes subgroup of ITT population
[2] = 500 mg, statin subgroup of ITT population
[3] = A-002 (50 mg), ITT subjects exhibiting at least 3 out of 5 metabolic syndrome criteria
[4] = A-002 (50 mg), non-statin subgroup of ITT population
[5] = A-002 (100 mg), ITT subjects exhibiting at least 3 out of 5 metabolic syndrome criteria
[6] = A-002 (100 mg), non-statin subgroup of ITT population

CCc1c(C(=O)C(N)=O)c2c(OCC(=O)OC)cccc2n1Cc1ccccc1 [A-002, [[3-(2-Amino-1,2-dioxoethyl)-2-ethyl-1-(phenylmethyl)-1H-indol-4-yl]oxy]acetic acid methyl ester]
sPLA2 level, Week 2, Range [1]: 0.05 to 0.50 ng/mL | sPLA2 level, Week 4, Mean [1]: 0.13 ng/mL | sPLA2 level, Week 4, Median [1]: 0.05 ng/mL | sPLA2 level, Week 4, Range [1]: 0.05 to 0.40 ng/mL | sPLA2 Change from baseline at week 2, Mean [2]: -2.93 ng/mL | sPLA2 Change from baseline at week 2, Median [2]: -3.30 ng/mL | sPLA2 Change from baseline at week 2, Range [2]: -4.80 to -0.55 ng/mL | sPLA2 Change from baseline at week 4, Mean [2]: -2.99 ng/mL | sPLA2 Change from baseline at week 4, Median [2]: -3.50 ng/mL | sPLA2 Change from baseline at week 4, Range [2]: -4.80 to -0.55 ng/mL | sPLA2 level, Baseline, Mean [2]: 3.05 ng/mL | sPLA2 level, Baseline, Median [2]: 3.00 ng/mL | sPLA2 level, Baseline, Range [2]: 0.60 to 5.40 ng/mL | sPLA2 level, Week 2, Mean [2]: 0.20 ng/mL | sPLA2 level, Week 2, Median [2]: 0.10 ng/mL | sPLA2 level, Week 2, Range [2]: 0.05 to 0.60 ng/mL | sPLA2 level, Week 4, Mean [2]: 0.14 ng/mL | sPLA2 level, Week 4, Median [2]: 0.05 ng/mL | sPLA2 level, Week 4, Range [2]: 0.05 to 0.60 ng/mL | sPLA2 level, Baseline, Mean [3]: 3.47 ng/mL | sPLA2 level, Baseline, Median [3]: 2.70 ng/mL | sPLA2 level, Baseline, Range [3]: 0.80 to 8.80 ng/mL | sPLA2 level, Change from baseline at week 2, Mean [3]: -2.89 ng/mL | sPLA2 level, Change from baseline at week 2, Median [3]: -2.50 ng/mL | sPLA2 level, Change from baseline at week 2, Range [3]: -5.30 to -0.60 ng/mL | sPLA2 level, Change from baseline at week 4, Mean [3]: -2.76 ng/mL | sPLA2 level, Change from baseline at week 4, Median [3]: -2.15 ng/mL | sPLA2 level, Change from baseline at week 4, Range [3]: -6.40 to -0.60 ng/mL | sPLA2 level, Week 2, Mean [3]: 0.96 ng/mL | sPLA2 level, Week 2, Median [3]: 0.30 ng/mL | sPLA2 level, Week 2, Range [3]: 0.20 to 4.00 ng/mL | sPLA2 level, Week 4, Mean [3]: 0.81 ng/mL | sPLA2 level, Week 4, Median [3]: 0.65 ng/mL | sPLA2 level, Week 4, Range [3]: 0.10 to 2.40 ng/mL | sPLA2 level, Baseline, Mean [4]: 1.80 ng/mL | sPLA2 level, Baseline, Median [4]: 1.80 ng/mL | sPLA2 level, Baseline, Range [4]: 1.80 to 1.80 ng/ml | sPLA2 level, Baseline, Mean [5]: 2.97 ng/mL | sPLA2 level, Baseline, Median [5]: 2.20 ng/mL | sPLA2 level, Baseline, Range [5]: 0.05 to 6.00 ng/mL | sPLA2 level, Change from baseline at week 2, Mean [5]: -1.01 ng/mL | sPLA2 level, Change from baseline at week 2, Median [5]: -1.80 ng/mL | sPLA2 level, Change from baseline at week 2, Range [5]: −3.30 to +2.85 ng/ml | sPLA2 level, Change from baseline at week 4, Mean [5]: -2.78 ng/mL | sPLA2 level, Change from baseline at week 4, Median [5]: -2.70 ng/mL | sPLA2 level, Change from baseline at week 4, Range [5]: -5.70 to 0.00 ng/mL | sPLA2 level, Week 2, Mean [5]: 1.20 ng/mL | sPLA2 level, Week 2, Median [5]: 0.80 ng/mL | sPLA2 level, Week 2, Range [5]: 0.30 to 2.90 ng/mL | sPLA2 level, Week 4, Mean [5]: 0.41 ng/mL | sPLA2 level, Week 4, Median [5]: 0.30 ng/mL | sPLA2 level, Week 4, Range [5]: 0.05 to 1.00 ng/mL | sPLA2 level, Baseline, Mean [6]: 3.85 ng/mL | sPLA2 level, Baseline, Median [6]: 3.85 ng/mL | sPLA2 level, Baseline, Range [6]: 2.80 to 4.90 ng/mL
